How the values were obtained:
[1] = system: CD8+ T cells; format: cell-based, human
[2] = system: CD8+ T cells; settings: cited from earlier work

In the case of YLQPRTFLL, the “CD8+ T cell response, overall” value [1] is given as “all able to generate a polyfunctional CD8+ T cell response”, the “CD8+ T cell response (in words)” value [2] is given as “strong CD8+ T cell response” and the “CD8+ T cell stimulation (in words)” value [2] is given as “strongly stimulate CD8+ T cells”.

Source: PMC8534114, “Molecular Basis of a Dominant SARS-CoV-2 Spike-Derived Epitope Presented by HLA-A*02:01 Recognised by a Public TCR” (Cells, 2021)
